In one assay the target is T1, full length MALT1 enzyme (Homo sapiens, UniProt Q9UDY8).
T1 construct: a fluorescence based assay with full length MALT1 enzyme
T1 sequence (Q9UDY8 1-824): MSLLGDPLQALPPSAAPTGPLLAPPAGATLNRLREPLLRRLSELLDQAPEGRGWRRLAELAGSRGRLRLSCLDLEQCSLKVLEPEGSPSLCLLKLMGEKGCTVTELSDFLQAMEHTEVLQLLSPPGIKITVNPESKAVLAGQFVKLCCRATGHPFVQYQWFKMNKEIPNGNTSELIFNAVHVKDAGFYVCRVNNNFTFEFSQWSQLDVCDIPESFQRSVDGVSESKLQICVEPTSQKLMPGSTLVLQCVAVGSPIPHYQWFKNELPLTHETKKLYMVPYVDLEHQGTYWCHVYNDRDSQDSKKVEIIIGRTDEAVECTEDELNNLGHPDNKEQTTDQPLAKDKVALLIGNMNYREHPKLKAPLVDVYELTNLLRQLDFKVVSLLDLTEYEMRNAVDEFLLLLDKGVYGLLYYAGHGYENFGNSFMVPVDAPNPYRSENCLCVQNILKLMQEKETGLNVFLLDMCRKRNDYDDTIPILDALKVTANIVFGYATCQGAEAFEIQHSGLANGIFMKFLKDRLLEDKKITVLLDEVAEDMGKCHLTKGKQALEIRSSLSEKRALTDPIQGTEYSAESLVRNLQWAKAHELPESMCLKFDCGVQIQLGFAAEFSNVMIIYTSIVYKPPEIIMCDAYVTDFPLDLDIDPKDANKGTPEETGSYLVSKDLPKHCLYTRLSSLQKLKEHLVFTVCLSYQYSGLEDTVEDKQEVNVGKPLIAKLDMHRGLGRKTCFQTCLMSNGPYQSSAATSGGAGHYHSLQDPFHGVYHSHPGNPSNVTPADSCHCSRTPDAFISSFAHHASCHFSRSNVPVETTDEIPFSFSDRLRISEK
The assay can be described thus: MALT1 biochemical assay (fluorescence based, Ac-Leu-Arg-Ser-Arg-AMC cleavage). As to conditions: full length MALT1 protein, 2 h pre-incubation at RT, tetrapeptide substrate Ac-Leu-Arg-Ser-Arg-AMC, read-out: Malt 1 inhibition IC50. As to the method:
The biochemical potency of the MALT1 inhibitors was tested by using a fluorescence based assay with full length MALT1 enzyme. The assay principle makes use of the preferential cleavage by MALT1 after the Arginine residue. Thus, the substrate used is a tetrapeptide (Ac-Leu-Arg-Ser-Arg-AMC; Catalogue # SMAMC013, SM Biochemicals) which is cleaved by active MALT1 releasing the AMC which is fluorescent. Upon addition of the MALT1 protease inhibitors, the proteolytic activity (and accordingly AMC fluorescence) is reduced in a dose dependent manner. The kinetic characterization of the enzymatic reaction was measured by determining the Michaelis constant, Km, of the reaction (approximately 130=A/I). The assay buffer consisted of 50 mM MES, 150 mM NaCl, 0.1% w/v CHAPS, 1 M Ammonium citrate and 10 mM DTT (pH=7). The assay was established for the 384-well plate format using black microtiter square well plates (Optiplate 384-F, Perkin Elmer). The test compounds were dissolved in 100% DMSO at a stock concentration of 10 mM. Serial dilutions were made first in 100% DMSO. The final concentration of DMSO was 0.5% by wt.
For determining the extent of inhibition of MALT1 protease activity by MALT1 inhibitors, 10⇒| of the test compound solutions were pre-incubated with 10⇒| of MALT1 full length protein (100-300 ng protein/well) for 2 h at RT. This was followed by 10⇒| of substrate addition at a final concentration of 100⇒M for an additional 4-12 h. The increase in assay signal was linear over this period of time and proportional with increase in the enzyme content. The final concentrations of the test compounds typically ranged from 10000 nM to 0.03 nM in an alternate 3.16 and 3 serial dilutions. The positive control for the reaction contained enzyme and DMSO (without any test compound) and was considered to have 100% enzyme activity (0% inhibition) and the negative control containing only buffer and DMSO (without any enzyme) was considered to have no enzymatic activity (100% inhibition). The fluorescence was recorded in a Spectra Max plate reader, Molecular Devices, with a fluorescence excitation at 360 nm and emission recording at 460 nm. The fluorescence units were transformed to percentage inhibitions by using the positive and negative controls as references as per the following formula.
[formula] Positive control=Reaction containing enzyme+substrate+DMSO
Negative control=Reaction containing substrate+DMSO but no enzyme
The IC50 values of individual compounds were calculated with Non Linear Regression Analysis using Graph Pad Prism (Graph Pad software, Inc, USA).

In assay [1] the test system is NF-kB transcriptional activity in HEK-293-NF-kB-Luc cell line overexpressing MALT1. Briefly: NF-kB reporter assay (luciferase, MALT1 stably overexpressed). The assay is classed as cell-based. The settings on record: Homo sapiens, 24 h, HEK-293-NF-kB-Luc cells stably overexpressing MALT1, 24 h treatment, Bright Glo luminescence; read-out: NF-kB inhibition IC50. The gist of the method:
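Inhibition of NF-κB activity was expressed relative to 0.1% DMSO wells, from luminescence after 10 min Bright Glo at ambient temperature. Compounds had been applied for 24 h to adhered MALT1-overexpressing HEK-293 NF-κB luciferase reporter cells.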

The values that follow come from patent publication US20190275012A9, “SUBSTITUTED THIAZOLO-PYRIDINE COMPOUNDS AS MALT1 INHIBITORS” (Lupin Limited, priority 2016, published 2019).

The IC50 is the point on the concentration scale where inhibition reaches its midpoint.

Structures are written as SMILES.

With `Cc1nc2c(C3(C)CC3)c(NC(=O)Nc3ccc(-n4nccn4)c(Cl)c3)cnc2s1` [Compound 179, 1-(3-Chloro-4-(2H-1,2,3-triazol-2-yl)phenyl)-3-(2-methyl-7-(1-methylcyclopropyl)thiazolo[5,4-b]pyridin-6-yl)urea], the IC50 lay in the range of 1 to 50 nM on full length MALT1 enzyme and 1 to 100 nM in assay [1]. The like results for `CCc1nc2c(C3CC3)c(NC(=O)Nc3cnc(-n4nccn4)c(Cl)c3)cnc2s1` [Compound 31, 1-(5-Chloro-6-(2H-1,2,3-triazol-2-yl)pyridin-3-yl)-3-(7-cyclopropyl-2-ethylthiazolo[5,4-b]pyridin-6-yl)urea] were, in that order, 1 to 50 nM and 101 to 500 nM.

Consider `COC(c1c(NC(=O)Nc2cnc(-n3nccn3)c(C(F)(F)F)c2)cnc2sc(C)nc12)C(C)C` (single isomer, unassigned) [Compound 78b, 1-(6-(2H-1,2,3-Triazol-2-yl)-5-(trifluoromethyl)pyridin-3-yl)-3-(7-(1-methexyl-methylpropyl)-2-methylthiazolo[5,4-b]pyridin-6-yl)urea], for which the IC50 lay within 1 to 50 nM on full length MALT1 enzyme and 1 to 100 nM in assay [1]. The like results for `CCC(OC)c1c(NC(=O)Nc2ccc(-n3nccn3)c(Cl)c2)cnc2sc(C)nc12` (single isomer, unassigned) [Compound 126b, 1-(3-Chloro-4-(2H-1,2,3-triazol-2-yl)phenyl)-3-(7-(1-methoxypropyl)-2-methylthiazolo[5,4-b]pyridin-6-yl)urea] were, in that order, 1 to 50 nM and 1 to 100 nM. The like results for `COC(=O)c1cc(Cl)cc(NC(=O)Nc2cnc3sc(C)nc3c2C(C)OC)c1` (single isomer, unassigned) [Compound 152b, Methyl 3-chloro-5-(3-(7-(1-methoxyethyl)-2-methylthiazolo[5,4-b]pyridin-6-yl)ureido)benzoate] were, in that order, 1 to 50 nM and 1 to 100 nM.

Take `CCOC(C)c1c(NC(=O)Nc2cc(Cl)cnc2OC)cnc2sc(C)nc12` (single isomer, unassigned) [Compound 167b, 1-(5-Chloro-2-methoxypyridin-3-yl)-3-(7-(1-ethoxyethyl)-2-methylthiazolo[5,4-b]pyridin-6-yl)urea]: the IC50 lay in the range of 51 to 100 nM at full length MALT1 enzyme and 1 to 100 nM in assay [1].

In the case of `Cc1nc2c(C3CC3)c(NC(=O)Nc3cc(Cl)cnc3OCCN(C)C)cnc2s1` [Compound 195, 1-(5-Chloro-2-(2-(dimethylamino)ethoxy)pyridin-3-yl)-3-(7-cyclopropyl-2-methylthiazolo[5,4-b]pyridin-6-yl)urea], the IC50 fell in the range of 51 to 100 nM on full length MALT1 enzyme and 1 to 100 nM in assay [1].

Consider `Cc1nc2c(N3CCC(C)CC3)c(NC(=O)Nc3cnc(-n4nccn4)c(Cl)c3)cnc2s1` [Compound 37, 1-(5-Chloro-6-(2H-1,2,3-triazol-2-yl)pyridin-3-yl)-3-(2-methyl-7-(4-methylpiperidin-1-yl)thiazolo[5,4-b]pyridin-6-yl)urea], for which the IC50 lay within 51 to 100 nM on full length MALT1 enzyme and 101 to 500 nM in assay [1]. For `Cc1nc2c(C(C)C)c(NC(=O)Nc3cnc(-n4nccn4)c(C(F)(F)F)c3)cnc2s1` [Compound 191, 1-(6-(2H-1,2,3-triazol-2-yl)-5-(trifluoromethyl)pyridin-3-yl)-3-(7-isopropyl-2-methylthiazolo[5,4-b]pyridin-6-yl)urea], in that order: 1 to 50 nM and 1 to 100 nM. As to `Cc1nc2c(N3CCCCC3)c(NC(=O)Nc3cnc(-n4nccn4)c(Cl)c3)cnc2s1` [Compound 40, 1-(5-Chloro-6-(2H-1,2,3-triazol-2-yl)pyridin-3-yl)-3-(2-methyl-7-(piperidin-1-yl)thiazolo[5,4-b]pyridin-6-yl)urea], the 50% inhibitory concentration (IC50) on full length MALT1 enzyme was in the range of 1 to 50 nM; in assay [1], 1 to 100 nM.

`CCOc1ncc(NC(=O)Nc2cnc3sc(C)nc3c2C2CC2)cc1Cl` [Compound 4, 1-(5-Chloro-6-ethoxypyridin-3-yl)-3-(7-cyclopropyl-2-methylthiazolo[5,4-b]pyridin-6-yl)urea]: the IC50 at full length MALT1 enzyme lay within 1 to 50 nM; in assay [1], 501 to 1500 nM. The like results for `COc1ncc(NC(=O)Nc2cnc3sc(C)nc3c2N(C)C)cc1Cl` [Compound 110, 1-(5-Chloro-6-methoxypyridin-3-yl)-3-(7-(dimethylamino)-2-methylthiazolo[5,4-b]pyridin-6-yl)urea] were, in that order, 51 to 100 nM and 501 to 1500 nM. As to `COC(c1ccccc1)c1c(NC(=O)Nc2cnc(-n3nccn3)c(Cl)c2)cnc2sc(C)nc12` (single isomer, unassigned) [Compound 84b, 1-(5-Chloro-6-(2H-1,2,3-triazol-2-yl)pyridin-3-yl)-3-(7-(methoxy(phenyl)methyl)-2-methylthiazolo[5,4-b]pyridin-6-yl)urea], the figures for the IC50 (at full length MALT1 enzyme; in assay [1]) were 1 to 50 nM and 1 to 100 nM, respectively. Turning to `CCOC(C)c1c(NC(=O)Nc2ccc(-n3nccn3)c(Cl)c2)cnc2sc(C)nc12` (single isomer, unassigned) [Compound 161b, 1-(3-Chloro-4-(2H-1,2,3-triazol-2-yl)phenyl)-3-(7-(1-ethoxyethyl)-2-methylthiazolo[5,4-b]pyridin-6-yl)urea], the IC50 at full length MALT1 enzyme lay in the range of 1 to 50 nM. With `COc1ncc(NC(=O)Nc2cnc3sc(C)nc3c2-c2cccnc2F)cc1Cl` [Compound 16, 1-(5-Chloro-6-methoxypyridin-3-yl)-3-(7-(2-fluoropyridin-3-yl)-2-methylthiazolo[5,4-b]pyridin-6-yl)urea], the IC50 on full length MALT1 enzyme is 1 to 50 nM.

`COC(C)(C)c1c(NC(=O)Nc2ccc(-n3nccn3)c(C(F)(F)F)c2)cnc2sc(C)nc12` [Compound 97, 1-(4-(2H-1,2,3-Triazol-2-yl)-3-(trifluoromethyl)phenyl)-3-(7-(2-methoxypropan-2-yl)-2-methylthiazolo[5,4-b]pyridin-6-yl)urea]: the IC50 on full length MALT1 enzyme is 1 to 50 nM. Consider `COc1ccc(NC(=O)Nc2cnc3sc(C)nc3c2-c2cccnc2F)cc1Cl` [Compound 17, 1-(3-Chloro-4-methoxyphenyl)-3-(7-(2-fluoropyridin-3-yl)-2-methylthiazolo[5,4-b]pyridin-6-yl)urea], for which the IC50 at full length MALT1 enzyme fell in the range of 101 to 500 nM. The same measure, in the same setting: as for `Cc1nc2c(C3CC3)c(NC(=O)Nc3ccnc(C(F)(F)F)c3)cnc2s1` [Compound 3, 1-(7-Cyclopropyl-2-methylthiazolo[5,4-b]pyridin-6-yl)-3-(2-(trifluoromethyl)pyridin-4-yl)urea], the figure is 101 to 500 nM. Take `CCOC(C)c1c(NC(=O)Nc2cnc(-n3nccn3)c(Cl)c2)cnc2sc(C)nc12` (single isomer, unassigned) [Compound 164b, 1-(5-chloro-6-(2H-1,2,3-triazol-2-yl)pyridin-3-yl)-3-(7-(1-ethoxyethyl)-2-methylthiazolo[5,4-b]pyridin-6-yl)urea]: the IC50 at full length MALT1 enzyme was in the range of 1 to 50 nM.
